Measurements reported in patent US4107297A, “Antibiotic compound” (The Kitasato Institute, priority 1976, dated 1978).
Values after ≈ are worked out from the molar mass of the structure shown. Values joined by “and” are separate entries in the source; they are usually repeats but may differ in a detail not shown here. Identical values can stand only once. Counter-ions that a name gives are not always drawn.

Key:
[1] = system: Bacillus substilis PCI 219; experiment: antibacterial activity, MIC by agar dilution method; format: cell-based; conditions: PCI219, medium N, pH 7.0
Excerpt: (§1) Table 1 indicates the antibacterial and antifungal activity of AM-2282 in terms of the minimum inhibitory concentration (mcg/ml) determined by agar dilution method.
(§2) *N: Peptone 0.5 % W/V, meat extract 0.5 % W/V, agar 1.2 % W/V, pH 7.0.

[2] = system: Escherichia coli NIJH; experiment: as above; format: cell-based; conditions: medium N, pH 7.0
Excerpt: as §1, §2

[3] = system: Mycobacterium Smegmatis ATCC 607; experiment: as above; format: cell-based; conditions: Mycolicibacterium smegmatis, ATCC607, medium N, pH 7.0
Excerpt: as §1, §2

[4] = system: Proteus vulgaris IFO 3167; experiment: as above; format: cell-based; conditions: IFO3167, medium N, pH 7.0
Excerpt: as §1, §2

[5] = system: Pseudomonas aeruginosa P-3; experiment: as above; format: cell-based; conditions: P3, medium N, pH 7.0
Excerpt: as §1, §2

[6] = system: Sarcina lutea PCI 1001; experiment: as above; format: cell-based; conditions: Micrococcus luteus, PCI1001, medium N, pH 7.0
Excerpt: as §1, §2

[7] = system: Staphylococcus aureus FDA 209P; experiment: as above; format: cell-based; conditions: FDA209P, medium N, pH 7.0
Excerpt: as §1, §2

[8] = system: Xanthomonas oryzae; experiment: microbe, parasite or virus in culture; format: cell-based; conditions: pH 7
[9] = system: Aspergillus brevipus; experiment: antifungal activity, MIC by agar dilution method; format: cell-based; conditions: medium P, pH 6.8
Excerpt: as §1
(§3) P: Potato extract containing glucose 1.0 % W/V and agar 1.2 % W/V, pH 6.8

[10] = system: Aspergillus fumigatus; experiment: antifungal activity, MIC by agar dilution method; format: cell-based; conditions: medium P, pH 6.8
Excerpt: as §1, §3

[11] = system: Aspergillus niger; experiment: antifungal activity, MIC by agar dilution method; format: cell-based; conditions: medium P, pH 6.8
Excerpt: as §1, §3

[12] = system: Candida albicans; experiment: antifungal activity, MIC by agar dilution method; format: cell-based; conditions: medium P, pH 6.8
Excerpt: as §1, §3

[13] = system: Candida pseudotropicalis; experiment: antifungal activity, MIC by agar dilution method; format: cell-based; conditions: Kluyveromyces marxianus, medium P, pH 6.8
Excerpt: as §1, §3

[14] = system: Cryptococcus neoformans; experiment: antifungal activity, MIC by agar dilution method; format: cell-based; conditions: medium P, pH 6.8
Excerpt: as §1, §3

[15] = system: Microsporum gipseum; experiment: antifungal activity, MIC by agar dilution method; format: cell-based; conditions: medium P, pH 6.8
Excerpt: as §1, §3

[16] = system: Saccharomyces sake; experiment: antifungal activity, MIC by agar dilution method; format: cell-based; conditions: medium P, pH 6.8
Excerpt: as §1, §3

[17] = system: Sclerotinia cinerea; experiment: antifungal activity, MIC by agar dilution method; format: cell-based; conditions: medium P, pH 6.8
Excerpt: as §1, §3

[18] = system: Trichophyton mentagrophytes; experiment: antifungal activity, MIC by agar dilution method; format: cell-based; conditions: medium P, pH 6.8
Excerpt: as §1, §3

[19] = system: Trichophyton rubrum; experiment: antifungal activity, MIC by agar dilution method; format: cell-based; conditions: medium P, pH 6.8
Excerpt: as §1, §3

[20] = system: Piricularia oryzae; experiment: microbe, parasite or virus in culture; format: cell-based; conditions: pH 6.8
[21] = system: edema and ulcer; experiment: activity on edema and ulcer in rats; format: in vivo
Method: The present antibiotic substance is a basic nitrogen-containing compound, viz. a so-called alkaloid-like substance. […] The minimum effective concentration is established to be 1.0 mg/kg.

[22] = acute toxicity in mice (Behrens-Karber method); conditions: mouse, in vivo, ip.
[23] = solubility in various solvent; format: physicochemical
[24] = system: arteriolar pressure (systolic) in the tail; experiment: test for hypertensive effect in rats disposed to spontaneous hypertension

## CN[C@@H]1CC2O[C@@](C)([C@@H]1OC)n1c3ccccc3c3c4c(c5c6ccccc6n2c5c31)C(=O)NC4 [AM-2282]
[1]
  MIC: > 200 µg/mL
[2]
  MIC: > 200 µg/mL
[3]
  MIC: 50 µg/mL (≈ 107 µM)
[4]
  MIC: > 200 µg/mL
[5]
  MIC: > 200 µg/mL
[6]
  MIC: 25 µg/mL (≈ 53.6 µM)
[7]
  MIC: > 200 µg/mL
[8]
  MIC: 200 µg/mL (≈ 429 µM)
[9]
  MIC: 3.12 µg/mL (≈ 6.69 µM)
[10]
  MIC: 12.5 µg/mL (≈ 26.8 µM)
[11]
  MIC: 25 µg/mL (≈ 53.6 µM)
[12]
  MIC: 6.25 µg/mL (≈ 13.4 µM)
[13]
  MIC: 3.12 µg/mL (≈ 6.69 µM)
[14]
  MIC: 50 µg/mL (≈ 107 µM)
[15]
  MIC: > 100 µg/mL
[16]
  MIC: 3.12 µg/mL (≈ 6.69 µM)
[17]
  MIC: 0.78 µg/mL (≈ 1.67 µM)
[18]
  MIC: 25 µg/mL (≈ 53.6 µM)
[19]
  MIC: 6.25 µg/mL (≈ 13.4 µM)
[20]
  MIC: 0.78 µg/mL (≈ 1.67 µM)
[21]; Rattus norvegicus, read-out: minimum effective concentration (activity on edema and ulcer)
  minimal effective dose: 1 mg/kg
[21]; rats
  activity on edema and ulcer: exhibit an activity on edema and ulcer
[22]
  LD50: 6.6 mg/kg
[23]; in chloroform
  Solubility: Sparingly soluble
[23]; in dimethyl formamide
  Solubility: Soluble
[23]; in dimethyl sulfoxide
  Solubility: Soluble
[23]; in ethyl acetate
  Solubility: Sparingly soluble
[23]; in fat
  Solubility: soluble in fat
[23]; in methanol
  Solubility: Sparingly soluble
[23]; in n-butyl acetate
  Solubility: Sparingly soluble
[23]; in n-hexane
  Solubility: Insoluble
[23]; in petroleum ether
  Solubility: Insoluble
[23]; in water
  Solubility: Insoluble

## CN[C@@H]1CC2O[C@@](C)([C@@H]1OC)n1c3ccccc3c3c4c(c5c6ccccc6n2c5c31)C(=O)NC4 [Hydrochloride of AM-2282]
[24]; 0.16 mg/kg, oral, after 1 hr
  Degree of hypertension (%): -2% and 2%
[24]; 0.16 mg/kg, oral, after 3 hrs
  Degree of hypertension (%): 1% and 2%
[24]; 0.16 mg/kg, oral, after 5 hrs
  Degree of hypertension (%): 1% and 2%
[24]; 0.3 mg/kg, oral, after 3 hrs
  Degree of hypertension (%): 23% and 13%
[24]; 0.3 mg/kg, oral, after 5 hrs
  Degree of hypertension (%): 11% and 12%
[24]; 0.63 mg/kg, oral, after 1 hr
  Degree of hypertension (%): 13% and 17%
[24]; 0.63 mg/kg, oral, after 3 hrs
  Degree of hypertension (%): 13% and 24%
[24]; 0.63 mg/kg, oral, after 5 hrs
  Degree of hypertension (%): 25% and 24%
[24]; 1.25 mg/kg, oral, after 1 hr
  Degree of hypertension (%): 15% and 18%
[24]; 1.25 mg/kg, oral, after 3 hrs
  Degree of hypertension (%): 23% and 25%
[24]; 1.25 mg/kg, oral, after 5 hrs
  Degree of hypertension (%): 31% and 39%
[24]; Rattus norvegicus, po, read-out: minimum dose rate at which the hypertensive effect appears
  minimal effective dose: 0.3 mg/kg

## CC(N)(Cc1ccc(O)c(O)c1)C(=O)O (stereo not drawn) [α-methyl DOPA, reference compound]
[24]; 100 mg/kg, after 1 hr
  Degree of hypertension (%): 7%
[24]; 100 mg/kg, after 3 hrs
  Degree of hypertension (%): 13%
[24]; 100 mg/kg, after 5 hrs
  Degree of hypertension (%): 13%
